MIC data for one compound are collected here from ChEMBL document CHEMBL1671711, “Serum and cerebrospinal fluid levels of colistin in pediatric patients” (Antimicrob Agents Chemother, 2010).

Molecules are shown by their SMILES. Values after ≈ are worked out from the molar mass of the structure shown.

The test has as its system Acinetobacter baumannii. Kind of test: Antimicrobial activity against Acinetobacter baumannii. It is filed as functional.

As to `C[C@@H](O)[C@H]1C(=O)N2C(C(=O)O)=C(S[C@@H]3CN[C@H](C(=O)N(C)C)C3)[C@H](C)[C@H]12` [MEROPENEM], the minimal inhibitory concentration (MIC) stood at 8 µg/mL (≈ 20.9 µM).

Broadly, the MIC is the least concentration at which growth counts as inhibited.
